Structures are written as SMILES. ≈ marks a conversion by molar mass, not a printed value. Where two headings read alike, the source gives them in different places.

The source of these data is paper PMC11178787, “Development of a natural product optimization strategy for inhibitors against MraY, a promising antibacterial target” (Nature Communications, 2024).

Common to all, as to test: microbe, parasite or virus in culture
Test [1] concerns T1, E. coli ATCC 25922.
T1 construct: ATCC 25922
As to conditions: Escherichia coli, ATCC25922. The method, then: (§1) MICs were determined by a microdilution broth method as recommended by the CLSI with MHB-II. For MICs of stable analogues, a 2-fold dilution of each compound was prepared in DMSO at 100-fold of the final concentration. The strains were inoculated with 5 × 10^5 cfu/mL in 96-well plates (each 100 μL/well), and 1 μL of DMSO solutions of the samples were added (contained less than 1% DMSO). The plates were incubated at 37 °C for 18 h and then MICs were determined. MICs of stable analogues in Table 1 were the highest value in three trials. MICs in Supplementary Table 1 were determined in one trial.  Fig. 2 Results of biological evaluations of hydrazone library. a General structures of hydrazine fragment moiety are shown. Each hydrazine class are represented by different colours (green; BZ, cyan; PA, grey; AC, yellow; AA, orange; LA). b–h MraY inhibitory activity and antibacterial activity of the hydrazone library. The bar graphs show the relative enzyme activity with DMSO as 100% when the compound is treated at given concentration (b,c; TUN at 100 nM, d,e; MRY at 10 nM, f.g; MRD at 100 nM, h; CAP at 1000 nM. n = 1), with the lower bars indicating higher inhibitory activity. The colour of the bars corresponds to Fig. 2a. […] Data of control compounds (van: vancomycin, col: colistin) are shown left column in each panel. E. faecium ATCC 35667, S. aureus ATCC 29213, P. aeruginosa ATCC 27853, K. pneumoniae ATCC 13883, E. cloacae ATCC 13047, A. baumannii ATCC 19606, E. coli ATCC 25922.

Test [2] relates to T2, E. faecium ATCC 35667.
T2 construct: ATCC 35667
The settings on record: Enterococcus faecium, ATCC35667. The method, then:
as §1

Test [3] relates to T3, P. aeruginosa ATCC 27853.
T3 construct: ATCC 27853
As to conditions: Pseudomonas aeruginosa, ATCC27853. The method, then: as §1

The subject of test [4] is T4, A. baumannii ATCC 19606.
T4 construct: ATCC 19606
The settings on record: Acinetobacter baumannii, ATCC19606. The method, then: as §1

Test [5] relates to T5, E. cloacae ATCC 13047.
T5 construct: ATCC 13047
The settings on record: Enterobacter cloacae, ATCC13047. The method, then:
as §1

The subject of test [6] is T2, E. faecium ATCC 35667. Also on record: CLSI broth microdilution MIC in MHB-II, single trial. The settings on record: Enterococcus faecium, ATCC35667, 18 h. The method, then:
(§2) MICs were determined by a microdilution broth method as recommended by the CLSI with MHB-II. For MICs of stable analogues, a 2-fold dilution of each compound was prepared in DMSO at 100-fold of the final concentration. The strains were inoculated with 5 × 10^5 cfu/mL in 96-well plates (each 100 μL/well), and 1 μL of DMSO solutions of the samples were added (contained less than 1% DMSO). The plates were incubated at 37 °C for 18 h and then MICs were determined. MICs of stable analogues in Table 1 were the highest value in three trials. MICs in Supplementary Table 1 were determined in one trial.

In test [7] the test system is T6, Staphylococcus aureus MRSA JE2.
T6 construct: JE2 (MRSA)
Also on record: CLSI broth microdilution MIC in MHB-II, single trial. The settings on record: 18 h. The method, then:
as §2

Test [8] relates to T7, E. faecium(VRE) ATCC 51559.
T7 construct: ATCC 51559 (VRE)
Details: CLSI broth microdilution MIC in MHB-II, single trial. As to conditions: Enterococcus faecium, 18 h. The method, then:
as §2

Test [9] has as its system T8, E. faecalis(VRE) ATCC 51299.
T8 construct: ATCC 51299 (VRE)
Details: CLSI broth microdilution MIC in MHB-II, single trial. The settings on record: Enterococcus faecalis, 18 h. The method, then: as §2

Test [10] has as its system T9, S. aureus ATCC 29213.
T9 construct: ATCC 29213
Also on record: CLSI broth microdilution MIC in MHB-II, single trial. The settings on record: Staphylococcus aureus, ATCC29213, 18 h. The method, then:
as §2

The test system of test [11] is T10, E. faecium(VRE) ATCC 51858.
T10 construct: ATCC 51858 (VRE)
Details: CLSI broth microdilution MIC in MHB-II, single trial. The settings on record: Enterococcus faecium, 18 h. The method, then:
as §2

For test [12], the system named is T11, Enterococcus faecalis 23.
T11 construct: 23
Details: CLSI broth microdilution MIC in MHB-II. As to conditions: Enterococcus faecalis, 23, 18 h, read-out: MIC. The gist of the method: (§3)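 Minimum inhibitory concentrations come from a CLSI-recommended broth microdilution method using MHB-II. Bacteria at 5 × 10^5 cfu/mL were exposed to 2-fold serial compound dilutions (final DMSO under 1%) for 18 h at 37 °C. Reported values reflect the highest of three replicate trials or, for certain compounds, one trial.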

Test [13] relates to T12, Staphylococcus aureus #2931.
T12 construct: #2931
Also on record: CLSI broth microdilution MIC in MHB-II. The settings on record: Staphylococcus aureus, 18 h, read-out: MIC. The gist of the method:
as §3

The subject of test [14] is T13, Enterococcus faecalis 29.
T13 construct: 29
Also on record: CLSI broth microdilution MIC in MHB-II. As to conditions: Enterococcus faecalis, 29, 18 h, read-out: MIC. The method in brief: as §3

For test [15], the system named is T14, Enterococcus faecalis 25.
T14 construct: 25
Details: CLSI broth microdilution MIC in MHB-II. The settings on record: Enterococcus faecalis, 25, 18 h, read-out: MIC. The gist of the method: as §3

Consider `CC1(C)S[C@@H]2[C@H](NC(=O)[C@H](N)c3ccccc3)C(=O)N2[C@H]1C(=O)O` [ampicillin], for which the MIC was 50 µM (≈ 17.5 µg/mL) in test [1]; less than 0.5 µM in test [2]; more than 50 µM in test [3]; 50 µM (≈ 17.5 µg/mL) in [4]; more than 50 µM in test [5]; 1 µg/mL (≈ 2.86 µM) in test [6] (read-out: ampicillin MIC). The MIC was 4 µg/mL (≈ 11.4 µM) in test [7] (read-out: ampicillin MIC); 128 µg/mL (≈ 366 µM) in [8] (read-out: ampicillin MIC); 1 µg/mL (≈ 2.86 µM) in [9] (read-out: ampicillin MIC); 1 µg/mL (≈ 2.86 µM) in [10] (read-out: ampicillin MIC); 128 µg/mL (≈ 366 µM) in [11] (read-out: ampicillin MIC); 1 µg/mL (≈ 2.86 µM) in [12]. The MIC in test [13] is 32 µg/mL (≈ 91.6 µM); in test [14], 1 µg/mL (≈ 2.86 µM); in test [15], 1 µg/mL (≈ 2.86 µM).

In the case of `CN[C@H](CC(C)C)C(=O)N[C@H]1C(=O)N[C@@H](CC(N)=O)C(=O)N[C@H]2C(=O)N[C@H]3C(=O)N[C@H](C(=O)N[C@H](C(=O)O)c4cc(O)cc(O)c4-c4cc3ccc4O)[C@H](O)c3ccc(c(Cl)c3)Oc3cc2cc(c3O[C@@H]2O[C@H](CO)[C@@H](O)[C@H](O)[C@H]2O[C@H]2C[C@](C)(N)[C@H](O)[C@H](C)O2)Oc2ccc(cc2Cl)[C@H]1O` [vancomycin], the MIC in test [1] was more than 50 µM; in [2], less than 0.5 µM; in [3] it was more than 50 µM; in [4] it was 50 µM (≈ 72.5 µg/mL); in test [5], more than 50 µM; in [6] (read-out: vancomycin MIC), 1 µg/mL (≈ 0.69 µM). Besides, the MIC is 1 µg/mL (≈ 0.69 µM) in test [7] (read-out: vancomycin MIC); more than 128 µg/mL in test [8] (read-out: vancomycin MIC); 128 µg/mL (≈ 88.3 µM) in test [9] (read-out: vancomycin MIC); 1 µg/mL (≈ 0.69 µM) in test [10] (read-out: vancomycin MIC); 128 µg/mL (≈ 88.3 µM) in test [11] (read-out: vancomycin MIC); 1 µg/mL (≈ 0.69 µM) in [12]. Besides, the MIC in test [13], in [14] and in test [15] was 1 µg/mL (≈ 0.69 µM) each time.
